According to patent US20230174571A1, “METHOD OF TREATING SHIP1-MEDIATED DISEASES USING PELOROL DERIVATIVES” (Zebrapeutics Inc., priority 2020, published 2023):

Experiments:
CLP-induced sepsis = assay: Caecum Ligation and Puncture (CLP) sepsis model; format: in vivo, mouse; settings: CLP mice, oral gavage; vs. 20% in CLP group without drug
From the text: The mouse CLP model is well-accepted clinically relevant method for anti-sepsis drug testing. The surgical operation included opening of the mouse abdomen, ligation of the cecum and puncture of the ligated cecum with a needle. Rittirsch, 2009 Method was followed to induce Mid to High grade experimental sepsis to achieve 70-100% […] rate over 7 days after CLP operation.
Methods: Five groups (n=10 each) of mice were designed with (1) a blank control, (2) Sham control (abdomen operation was performed but without cecal ligation/puncture), (3) CLP group (operation with cecal ligation/puncture), (4) CLP+compound I-1 (MN100) (3 mg/kg/d), and (5) CLP+compound I-1 (MN100) (10 mg/kg/d). ZPR-MN100 (compound I-1) was given 3 days before CLP operation and continued to 7 days after CLP. ZPR-MN100 was delivered via oral gavage twice a day. […] Mouse condition and survival were recorded every day. Seven days after CLP, the experiment was terminated and survival curves were drawn using GraphPad Prism.

[1] = tested on: SHIP1 (full length SHIP1, PPAC, PAC2); assay: In vitro phosphatase assay; format: biochemical; settings: full length SHIP1, 293T derived PPAC, E. coli derived PPAC, and PAC2; 50 μM IP4
Description: In vitro phosphatase assay. The phosphatase assay was performed in 96-well microtiter plates with 10 ng of enzyme/well in a total volume of 25 μL in 20 mM Tris-HCl, pH 7.4, 150 mM NaCl, 0.05% Tween-20, 10 mM MgCl2 as described (Ong et al., 2007). Enzyme was incubated with or compound I-1 (dissolved in ethanol) for 10 minutes at 23° C., before the addition of 50 μM of inositol-1,3,4,5-tetrakisphosphate (IP4) (Echelon Bioscience Inc., Salt Lake City, Utah). The reaction was allowed to proceed for 10 minutes at 37° C. and the amount of inorganic phosphate released was assessed by the addition of Malachite
Green reagent and absorbance measurement at 650 nm. For enzyme kinetic determination, different concentrations of IP4 (0-300 μM) were used and the reactions were stopped at different time points. Initial velocities were calculated, and Kcat and KM were determined using GraphPad 6 software.

colitis in IL10−/− mice = assay: Mouse colitis model (IL10 knock-out); format: in vivo; settings: colitic IL10−/− mice
Description: Mouse Colitis Model. Colitis was induced in 6-8 week old BALB/cIL10−/−mice by administering the colonic contents of conventional C57BL/6 mice diluted 1:10 in PBS by oral gavage. Mouse weights and fecal consistencies were monitored and colitis allowed to develop for 6 weeks. Ethanol (Vehicle) and compound I-1 (3 mg/kg) was diluted in cage drinking water and dexamethasone (0.4 mg/kg) was administered every 2 days by oral gavage for 3 weeks. At the end of the dosing period, proximal, medial and distal colon sections were collected for paraffin embedding or stored in RNALater (Invitrogen, Mississauga, ON) for RNA extraction. Slides were prepared, stained with hematoxylin and eosin, and mounted by the UBC Department of Pathology and Laboratory Medicine Histochemistry Facility. Specimens were assigned pathological scores by two, independent, blinded investigators according to a method described by Madsen et al (Madsen et al., 2001). In brief, colonic inflammation was graded using a 4-point scale, scoring 0-3 for each of submucosal edema, immune cell infiltration, goblet cell ablation, and integrity of the epithelial layer. For analysis of mRNA expression, colon sections were homogenized and total RNA extracted as described above and analyzed by real time PCR using gene specific primers for IL17, CCL2, and GAPDH (normalization control).
To show in vivo anti-inflammatory effect of the compounds of the present disclosure, exemplary compound I-1 was administered to IL-10 knock-out mouse model of colitis (Keubler 2015). IL10 knock-out mice develop colitis when colonized with normal gut flora because IL10 is needed to temper the host immune response to intestinal commensal bacteria (Keubler 2015, Kuhn 1993). Colitis was initiated in IL10−/−mice by inoculating them with the freshly isolated colon contents of normal, specific pathogen free mice and allowed inflammation to develop for 6 weeks (Sydora 2003). Mice were then treated for 3 weeks with vehicle, 2 mg/kg compound I-1, or 0.4 mg/kg dexamethasone (anti-inflammatory steroidal drug used as positive control) prior to colon tissue collection for analyses. Hematoxylin and eosin stained sections were prepared from the proximal, mid and distal colons of mice, as well as from mice not inoculated with flora (no colitis group) (FIG. 8A).

MM.1S cells = assay: MM.1S tumour model in NOD/SCID mice; format: in vivo, mouse; settings: NOD/SCID mice bearing MM.1S tumours; administered through drinking water
Description: The IBD model mice were dosed with 2 or 3 mg/kg of compounds of the present disclosure, for example compound I-1. The MM model mice were dosed with about 20 to about 50 mg/kg of compounds of the present disclosure, for example compound I-1. The appropriate amount of 5 mg/mL PBS solution with 5% v/v Cremophore EL/5% v/v ethanol as prepared above was diluted into the mice's drinking water.
MM.1S cells expressing firefly luciferase were injected along with Matrigel basement membrane into the upper flank of NOD/SCID mice and allowed to establish for two weeks. Compound I-1 or vehicle (n=4) were administered through drinking water (as described in General Methods).

[2] = 3 weeks treatment, RT-qPCR relative to GAPDH

Cc1cc(O)cc2c1C1(C)CCC3C(C)(C)CCCC3(C)C1C2 (stereo not shown) [Compound I-1]
7-day survival rate (CLP-induced sepsis): 50% | activation of phosphatase activity [1]: could be activated | reduction of histological and molecular markers of colon inflammation, compared with dexamethasone (colitis in IL10−/− mice): as effective as dexamethasone | pathology scores of colon sections (colitis in IL10−/− mice; 3 weeks treatment, 2 mg/kg compound I-1 or 0.4 mg/kg dexamethasone, vs vehicle): significantly lower pathology scores | CCL2 mRNA in colon (colitis in IL10−/− mice; [2]): significantly reduced | IL17 mRNA in colon (colitis in IL10−/− mice; [2]): significantly reduced | tumour mass (bioluminescence imaging) (MM.1S cells): effectively reduces tumour mass
